Several values for one entry are separate records, joined by “and”; a condition that tells them apart may be missing. Equal entries are not always repeated.
How the values were obtained:
[1] = tested on: EGFPCAG78 RNA expressing SK-N-MC cells; test: LDH cytotoxicity assay, EGFPCAG78 RNA expressing SK-N-MC cells; format: cell-based, human
Experimental: It was next investigated whether DB213 could mitigate expanded CAG-repeat RNA-mediated toxicity in SK-N-MC human neuronal cell. […] Taken together, DB213 could suppress the expanded CAG RNA-mediated but not polyQ protein-mediate toxicity in human neuronal cell.
SK-N-MC human neuronal cells were seeded on a 24-well plate and lactate dehydrogenase enzyme activity in the cell culture medium was measured 72 hours post-transfection and drugs treatment using the Cytotox 96 non-radioactive cytotoxicity assay (Promega).

[2] = tested on: pre-45s rRNA in EGFPCAG27 RNA expressing cell; test: pre-45s rRNA real-time PCR, EGFPCAG27 RNA expressing cells; format: cell-based, human
Experimental: Nucleolar stress and a chain of downstream events were triggered and ultimately led to apoptosis^7.
RNA was extracted from cells by Trizol reagent (Life Technologies), and 1 μg of purified RNA was then used for reverse-transcription using the ImPromII™ Reverse Transcription System (Promega). Random hexamer (Roche) was used as primers in reverse transcription. Taqman gene expression assays were performed on an ABI 7500 Real-time PCR system and data were analyzed as previously described^7. The following probes were used: pre-45s rRNA (Assay ID: AILJIZM) and actin (Assay ID: Hs99999903_m1).

R6/2 Huntington's mice [3] = test: Tolerability / mortality in R6/2 Huntington's mice after i.n. or i.v. dosing; details: for Mice lost in total: all dose groups; for Highest tolerated dose: R6/2 mice
Experimental: The objective of this study was to investigate the tolerability of i.n. or i.v. administrated Compound-5 (DB213) treatment on 1) neurological index (NI) scores, 2) body weight, 3) body temperature and 4) activity in open field test in R6/2 Huntington's mice.
i.n.: Group 1: 3 female and 3 male R6/2 mice treated with i.n. vehicle starting at 6 weeks of age and continuing for 7 days; Group 2: 3 female and 3 male R6/2 mice treated i.n. daily with Compound-5 at 50 mg/kg starting at 6 weeks of age and continuing for 7 days; Group 3: 3 female and 3 male R6/2 mice treated i.n. daily with Compound-5 at 100 mg/kg starting at 6 weeks of age and continuing for 7 days; Group 4: 3 female and 3 male R6/2 mice treated i.n. daily with Compound-5 at 200 mg/kg starting at 6 weeks of age and continuing for 7 days; Group 5: 3 female and 3 male R6/2 mice treated i.n. daily with Compound-5 at 300 mg/kg starting at 6 weeks of age and continuing for 7 days.
Compound-5 or vehicle was administered i.n. daily or i.v. twice-a-week starting at 6 weeks of age for 7 days.
i.v. administration: mice received 2 weekly i.v. injections into the tail vein. Mice were weighed on each treatment day and the dose adjusted accordingly to 1 ml/kg dose volume. For example, a mouse with a 30 g body weight received an i.v. injection of 30 μl. The whole i.v. injection process took 5-8 min per mouse.
i.n. administration: using a three fingered scruff, each mouse was restrained twice and held with neck parallel to the table while the compound was administered. The volume was 0.56 ml/kg. For example, a mouse with a 30 g body weight received in total 16.8 μl. During each restraint, 8.4 μl was administered to the left nostril as two 4.2 μl drops, followed by a 15 sec hold, and 8.4 μl was administered to the right nostril as two 4.2 μl drops, followed by a 15 sec hold. Notes were taken on the success of delivery and any lost volume greater than 2 μl were re-administered.
Animals were monitored twice-a-day by laboratory personnel (8 am and […]). […] Definitions of acceptable endpoints included: no spontaneous movements and inability to drink or eat in 24-h observation period, massive bleeding, spontaneous inflammation, missing anatomy, swelling or tumors larger than 20 mm, and inability to right itself in 30 sec period.

R6/2 Huntington's mice [4] = test: Open field test in R6/2 mice; format: in vivo
Experimental: The body weights were measured daily.
Open field test was performed at baseline, and on day 7. The mice were brought to the experimental room for at least 1 h acclimation to the experimental room conditions prior to testing. Activity chambers (Med Associates Inc, St Albans, Vt.; 27×27×20.3 cm) were equipped with IR beams. Mice were placed in the center of the chamber and their behavior was recorded for 30 min in 5-minute bins. Quantitative analysis was performed on the following five dependent measures: total locomotion, locomotion in the center of the open field, rearing rate in the center, total rearing frequency and velocity. Animals were tested at low-stress conditions where the light was lowered to approximately 10-30 lux of red light.

[5] = Body temperature (rectum) in R6/2 mice; details: for Body temperature vs vehicle: day 7, p<0.05
Experimental: Body temperature was measured from rectum on day 1 (baseline), and on days 3, 5 and 7.
Body temperature was measured from rectum on day 1 (baseline) and on days 3, 5 and 7.

[6] = i.v. 200 mg/kg group (so in the source)
[7] = i.v. 300 mg/kg group (so in the source)

In the case of `CN(C)CCCNC(=N)c1ccc(C(=N)NCCCN(C)C)cc1.Cl.Cl.Cl.Cl` [DB213], the “Cell death induced by EGFPCAG78 RNA (LDH assay)” value ([1]; 72 hours post-transfection and treatment) is reported as “could be suppressed”, the IC50 ([1]; read-out: IC50, inhibition of cell death induced by EGFPCAG78 RNA (LDH enzyme activity reduced by 50%)) is reported as 6.9 ± 1.8 nM and the “pre-45s rRNA transcription level” value [2] is reported as “did not alter the pre-45s rRNA transcription level”. For the same molecule, the Mortality (R6/2 Huntington's mice [3]; both intranasal and intravenous treatment) was “increase mortality in dose-dependent manner”, the Mice lost (R6/2 Huntington's mice [3]; i.n. daily 50 mg/kg, 7 days) was 1 mouse and the “Mice lost, share of group” value (R6/2 Huntington's mice [3]; i.n. daily 50 mg/kg, 7 days) was 16.7%. For the same molecule, the Mice lost (R6/2 Huntington's mice [3]; i.n. daily 100 mg/kg, 7 days) was 2 mice, the “Mice lost, share of group” value (R6/2 Huntington's mice [3]; i.n. daily 100 mg/kg, 7 days) was 33.3% and the Mice lost (R6/2 Huntington's mice [3]; i.n. daily 200 mg/kg, 7 days) was 4 mice. For the same molecule, the “Mice lost, share of group” value (R6/2 Huntington's mice [3]; i.n. daily 200 mg/kg, 7 days) was 66.7%, the Mice lost (R6/2 Huntington's mice [3]; i.n. daily 300 mg/kg, 7 days) was 3 mice and the “Mice lost, share of group” value (R6/2 Huntington's mice [3]; i.n. daily 300 mg/kg, 7 days) was 50%. For the same molecule, the “Mice lost in total” value (R6/2 Huntington's mice [3]; i.n. daily, 7 days) was 10 mice, the Mice lost (R6/2 Huntington's mice [3]; [6]) was 2 mice and the “Mice lost, share of group” value (R6/2 Huntington's mice [3]; [6]) was 100%. For the same molecule, the Mice lost (R6/2 Huntington's mice [3]; [7]) was 2 mice, the “Mice lost, share of group” value (R6/2 Huntington's mice [3]; [7]) was 100% and the Mice lost (R6/2 Huntington's mice [3]; i.v. twice-a-week 25 mg/kg) was 1 mouse. The “Mice lost, share of group” value (R6/2 Huntington's mice [3]; i.v. twice-a-week 25 mg/kg) was 12.5%, the Mice lost (R6/2 Huntington's mice [3]; i.v. twice-a-week 50 mg/kg) was 3 mice and the “Mice lost, share of group” value (R6/2 Huntington's mice [3]; i.v. twice-a-week 50 mg/kg) was 75%. The “Mice lost in total” value (R6/2 Huntington's mice [3]; i.v. twice-a-week) was 8 mice, the Highest tolerated dose (R6/2 Huntington's mice [3]; intranasally) was 50 to 100 mg/kg and the Highest tolerated dose (R6/2 Huntington's mice [3]; intravenously) was 12.5 to 25 mg/kg. The “Movement activity in open field test” value (R6/2 Huntington's mice [4]; day 7 post-dosing) was “no effect on movement activity”, the “Open field distance, rearings, distance in center, rearings in center or velocity, differences between treatment groups” value (R6/2 Huntington's mice [4]; i.n. dosing, day 7) was “no differences” and the “Open field distance, rearings, distance in center, rearings in center or velocity, differences between treatment groups” value (R6/2 Huntington's mice [4]; i.v. dosing, baseline or day 7) was “no differences”. The “Body temperature vs vehicle” value ([5]; i.n. 100 mg/kg) was “increased”, the “Body temperature vs vehicle” value ([5]; i.n. 300 mg/kg) was “increased” and the “Body temperature (group Mean)” value ([5]; i.n. daily 50 mg/kg, Day 1 (baseline)) was 36.9. For the same molecule, the “Body temperature (individual mouse)” value ([5]; i.n. daily 50 mg/kg, Day 1 (baseline), listed as Compound-5, 50 mg/kg) was 37 and 35.9 and 36.4, the “Body temperature (group Mean)” value ([5]; i.n. daily 50 mg/kg, Day 3) was 36.9 and the “Body temperature (individual mouse)” value ([5]; i.n. daily 50 mg/kg, Day 3, listed as Compound-5, 50 mg/kg) was 36.9 and 35.8 and 37. For the same molecule, the “Body temperature (individual mouse)” value ([5]; i.n. daily 50 mg/kg, Day 5, listed as Compound-5, 50 mg/kg) was 37.9, the “Body temperature (individual mouse)” value ([5]; i.n. daily 50 mg/kg, Day 7, listed as Compound-5, 50 mg/kg) was 37 and 38.1 and the “Body temperature (group Mean)” value ([5]; i.n. daily 100 mg/kg, Day 1 (baseline)) was 37.0. The “Body temperature (individual mouse)” value ([5]; i.n. daily 100 mg/kg, Day 3, listed as Compound-5, 100 mg/kg) was 37.7 and 37 and 36.9, the “Body temperature (individual mouse)” value ([5]; i.n. daily 100 mg/kg, Day 5, listed as Compound-5, 100 mg/kg) was 37.7 (2×) and 36.6 and 37.9 and 36.9 and the “Body temperature (individual mouse)” value ([5]; i.n. daily 100 mg/kg, Day 7, listed as Compound-5, 100 mg/kg) was 38.1 and 37.7 and 36.9. For the same molecule, the “Body temperature (individual mouse)” value ([5]; i.n. daily 200 mg/kg, Day 1 (baseline), listed as Compound-5, 200 mg/kg) was 36.9 (2×) and 37.7, the “Body temperature (individual mouse)” value ([5]; i.n. daily 200 mg/kg, Day 3, listed as Compound-5, 200 mg/kg) was 36.6 and the “Body temperature (individual mouse)” value ([5]; i.n. daily 200 mg/kg, Day 5, listed as Compound-5, 200 mg/kg) was 38. The “Body temperature (individual mouse)” value ([5]; i.n. daily 300 mg/kg, Day 5, listed as Compound-5, 300 mg/kg) was 38, the “Body temperature (individual mouse)” value ([5]; i.n. daily 300 mg/kg, Day 7, listed as Compound-5, 300 mg/kg) was 37.9 and the “Body temperature (group Mean)” value ([5]; i.v. 50 mg/kg (treatment discontinued), Day 3, n 1) was 37.7. For the same molecule, the “Body temperature (group Mean)” value ([5]; i.v. 50 mg/kg (treatment discontinued), Day 5, n 1) was 38.0, the “Body temperature (group Mean)” value ([5]; i.v. 50 mg/kg (treatment discontinued), Day 7, n 1) was 37.0 and the “Body temperature, differences between treatment groups” value ([5]; i.v. dosing, p>0.05) was “no significant differences”. For the same molecule, the “Body temperature (group Mean)” value ([5]; i.v. twice-a-week 12.5 mg/kg, Day 1 (baseline)) was 36.7, the “Body temperature (individual mouse)” value ([5]; i.v. twice-a-week 12.5 mg/kg, Day 1 (baseline), listed as Compound-5) was 35.7 and 37 and the “Body temperature (individual mouse)” value ([5]; i.v. twice-a-week 12.5 mg/kg, Day 3, listed as Compound-5) was 38. The “Body temperature (group Mean)” value ([5]; i.v. twice-a-week 12.5 mg/kg, Day 5) was 37.0, the “Body temperature (individual mouse)” value ([5]; i.v. twice-a-week 12.5 mg/kg, Day 5, listed as Compound-5) was 37 and the “Body temperature (individual mouse)” value ([5]; i.v. twice-a-week 12.5 mg/kg, Day 7, listed as Compound-5) was 37 and 38.6. The “Body temperature (group Mean)” value ([5]; i.v. twice-a-week 25 mg/kg, Day 1 (baseline)) was 37.0, the “Body temperature (individual mouse)” value ([5]; i.v. twice-a-week 25 mg/kg, Day 1 (baseline), listed as Compound-5) was 37.9 and 36.6 and 36.4 and 38.5 and the “Body temperature (individual mouse)” value ([5]; i.v. twice-a-week 25 mg/kg, Day 3, listed as Compound-5) was 36.9. The “Body temperature (individual mouse)” value ([5]; i.v. twice-a-week 25 mg/kg, Day 5, listed as Compound-5) was 37.9 and the Body temperature ([5]; intranasal dosing) was “increased”.

Reference: patent US10143666B2, “Small molecule inhibitors targeting CAG-repeat RNA toxicity in polyglutamine diseases” (The Chinese University of Hong Kong, priority 2015, dated 2018)
